Measurements from US20050163731A1, “Skin depigmenting compositions comprising adapalene and at least one depigmenting active agent” (GALDERMA RESEARCH & DEVELOPMENT, S.N.C., priority 2002, published 2005).

Experiments:
[1] = tested on: natural pigmentation of the tail of SKH HR2 mice; assay: Depigmenting activity on natural pigmentation, tail of non-irradiated SKH HR2 mice (clinical pigmentation score); assay type: in vivo; settings: non-irradiated SKH HR2 mouse tail, hydroquinone 3%, adapalene 0.1% in acetone, topical, 5 days per week for 8 weeks, score 0 to -4
Protocol: The depigmenting activity is measured on the natural pigmentation after application of the test product to the tail of non-irradiated animals.
The treatment is carried out for 5 days per week for 8 weeks. […] On the days for irradiation, the treatment is applied after irradiation.
The evaluation is made by different clinical observations: once per week before irradiation, the pigmentation is evaluated by virtue of a score on a scale from 0 to 4. The distribution of the scores is the following: • −0: natural pigmentation • depigmentation scale: scores −1 to −4 • −1: light depigmentation • −2: moderate depigmentation • −3: marked depigmentation • −4: total depigmentation • pigmentation scale: scores 1 to 4 • 1: light pigmentation • 2: moderate pigmentation • 3: marked pigmentation • 4: intense pigmentation

[2] = tested on: UV-induced pigmentation of the tail of SKH HR2 mice; settings: SKH HR2 mouse tail irradiated with UV-B 90 mJ/cm^2 3 times per week for 8 weeks; hydroquinone 3%, adapalene 0.1% topical; score 1 to 4
Protocol: The depigmenting activity is measured on the natural pigmentation after application of the test product to the tail of non-irradiated animals. The anti-pigmenting activity is measured by the inhibition of the induction of the UV-induced pigmentation: the test product is applied to the tail of animals irradiated with UV-B. The treatment is carried out for 5 days per week for 8 weeks. […] On the days for irradiation, the treatment is applied after irradiation. The animals are irradiated 3 times per week for 8 weeks (Monday, Wednesday, Friday) at the dose of 90 mJ/cm^2 of UV-B. The evaluation is made by different clinical observations: once per week before irradiation, the pigmentation is evaluated by virtue of a score on a scale from 0 to 4. The distribution of the scores is the following: • −0: natural pigmentation • depigmentation scale: scores −1 to −4 • −1: light depigmentation • −2: moderate depigmentation • −3: marked depigmentation • −4: total depigmentation • pigmentation scale: scores 1 to 4 • 1: light pigmentation • 2: moderate pigmentation • 3: marked pigmentation • 4: intense pigmentation

Structure (SMILES) | Depigmenting activity (effect on natural pigmentation) [1] | Anti-pigmenting activity (inhibition of UV-B-induced pigmentation) [2] | Depigmenting activity (effect on natural pigmentation) ([1]; listed as adapalene)
Oc1ccc(O)cc1 [hydroquinone] | statistically significant depigmentation at the end of the study | anti-pigmenting effect at the 6th and at the 7th week (D50) which becomes less marked at the end of the study | 
COc1ccc(-c2ccc3cc(C(=O)O)ccc3c2)cc1C12CC3CC(CC(C3)C1)C2 [Adapalene, 6-[3-(1-adamantyl)-4-methoxyphenyl]-2-naphthanoic acid] | does not modify the natural pigmentation |  | no depigmenting activity
